Data from patent publication US12629374B2, “Antimalarial agents” (Merck Sharp & Dohme LLC, priority 2020, dated 2026).
Read-outs that look alike come from different tables or passages of the source.

System: ring stage parasites
Test: Parasite growth potency assay, 72 hours, LDH readout
Type: cell-based
Details: parasite growth measured by LDH assay after 72 hours at 37° C., 0.7% rings, 2% haematocrit, read-out: EC50
Outline: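 Parasite growth was quantified by LDH assay after a −80 °C freeze-thaw. Before that, compound was incubated for 72 h at 37 °C under humidified gas with ring-stage cultures adjusted to 0.7% parasitemia and 2% haematocrit in serum- and albumax-supplemented RPMI-Hepes.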

SMILES | EC50 [nM] | EC50 (72 h) [nM]
CCC1(CC)CC(=O)N(C(c2cncnc2)c2cccc(C(=O)NC3CC(C)(C)Oc4ccccc43)c2)C(=N)N1 (single isomer, unassigned) [Example 92A, 3-[(4,4-diethyl-2-imino-6-oxo-hexahydropyrimidin-1-yl)-pyrimidin-5-yl-methyl]-N-(2,2-dimethylchroman-4-yl)benzamide] | 25.5 | 
CCC1(CC)CC(=O)N(C(CC(OC)C(F)(F)F)c2cccc(C(=O)N[C@@H]3c4ccccc4C[C@H]3O)c2)C(=N)N1 (single isomer, unassigned) [Example 238D] | 2.25 | 
CC1(C)CC(=O)N(Cc2cc(F)cc(C(=O)N[C@@H]3c4ccccc4OC(C)(C)[C@H]3O)c2)C(=N)N1 [Example 183, [1-[[3-fluoro-5-[[(3S,4R)-3-hydroxy-2,2-dimethyl-chroman-4-yl]carbamoyl]phenyl]methyl]-4,4-dimethyl-6-oxo-hexahydropyrimidin-2-ylidene]ammonium; 2,2,2-trifluoroacetate] |  | 9.1
CCC[C@H](c1cccc(C(=O)N[C@H]2CC3(CCC3)Oc3ccccc32)c1)N1C(=N)NC(CC)(CC)CC1=O (stereo in doubt) [Example 212B, [4,4-diethyl-6-oxo-1-[(1R)-1-[3-[[(4R)-spiro[chromane-2,1′-cyclobutane]-4-yl]carbamoyl]phenyl]butyl]hexahydropyrimidin-2-ylidene]ammonium; 2,2,2-trifluoroacetate] |  | 0.9
CCC1(CC)CC(=O)N(Cc2cc(F)cc(C(=O)N[C@@H]3c4cc(F)ccc4OC(C)(C)[C@H]3O)c2)C(=N)N1 (stereo in doubt) [Example 148, [4,4-diethyl-1-[[3-fluoro-5-[(6-fluoro-3-hydroxy-2,2-dimethyl-chroman-4-yl)carbamoyl]phenyl]methyl]-6-oxo-hexahydropyrimidin-2-ylidene]ammonium; 2,2,2-trifluoroacetate] |  | 1
COCC[C@H](c1cc(F)cc(C(=O)N[C@H]2CC(C)(C)Oc3ccccc32)c1)N1C(=N)NC(C)(C)CC1=O [Example 173, [1-[1-[3-[[(4S)-2,2-dimethylchroman-4-yl]carbamoyl]-5-fluoro-phenyl]-3-methoxy-propyl]-4,4-dimethyl-6-oxo-hexahydropyrimidin-2-ylidene]ammonium; 2,2,2-trifluoroacetate] |  | 1
CCC1(CC)CC(=O)N(Cc2ccc(F)c(C(=O)N[C@H]3CCOc4ccccc43)c2)C(=N)N1 [Example 21, [1-[[3-[[(4S)-chroman-4-yl]carbamoyl]-4-fluoro-phenyl]methyl]-4,4-diethyl-6-oxo-hexahydropyrimidin-2-ylidene]ammonium; 2,2,2-trifluoroacetate] |  | 3.5
N=C1N[C@@](CC2CC2)(c2ccccc2)CC(=O)N1Cc1cc(F)cc(C(=O)N[C@@H]2CCOc3ccccc32)c1 [Example 5B, [(4R)-1-[[3-[[(4R)-chroman-4-yl]carbamoyl]-5-fluoro-phenyl]methyl]-4-(cyclopropylmethyl)-6-oxo-4-phenyl-hexahydropyrimidin-2-ylidene]ammonium; 2,2,2-trifluoroacetate] |  | 57.4
CCC1(CC)CC(=O)N(Cc2cc(C#N)cc(C(=O)N[C@H]3CCOc4ccccc43)c2)C(=N)N1 [Example 84, [1-[[3-[[(4S)-chroman-4-yl]carbamoyl]-5-cyano-phenyl]methyl]-4,4-diethyl-6-oxo-hexahydropyrimidin-2-ylidene]ammonium; 2,2,2-trifluoroacetate] |  | 8.3
CCC1(CC)CC(=O)N([C@H](CC(C)(C)O)c2cccc(C(=O)N[C@H]3CC(C)(C)Oc4ccccc43)c2)C(=N)N1 [Example 145, 3-[1-(4,4-diethyl-2-imino-6-oxo-hexahydropyrimidin-1-yl)-3-hydroxy-3-methyl-butyl]-N-[(4S)-2,2-dimethylchroman-4-yl]benzamide] |  | 0.7
